This assay has as its system P388. Description: Cytotoxicity against mouse P388 cells. It counts as functional. The conditions noted are these: read-out: ED50 (the source's name).

SMILES strings stand for the structures. Converted amounts (≈) assume the structure as drawn.

Take `CC(=O)C1=CC[C@H]2C3=CCC4=C[C@@H](O)[C@H](O)C[C@]4(C)[C@H]3C[C@@H](O)[C@]12C` [STIZOPHYLLIN]: the EC50 stood at 0.07 µg/mL (≈ 0.203 µM).

Source of the values: ChEMBL document CHEMBL1150705, “Plant anticancer agents XLIV. Cytotoxic constituents from Stizophyllum riparium” (1987).
